{
  "source": "patent US10517889B2",
  "about": "“Modulators of SMAD7 expression” (Ionis Pharmaceuticals, Inc., priority 2017, dated 2019)",
  "key": {"dog SMAD7 mRNA": {"tested_on": "dog SMAD7 mRNA", "assay": "Pharmacology: dog SMAD7 mRNA expression in liver, kidney, duodenum, ileum and colon after subcutaneous administration in beagle dogs (Example 8)", "assay_type": "in vivo", "conditions": "30 mg/kg subcutaneous, necropsy, normalized to HPRT1", "description": "There were 4 animals per group.\nThe pharmacological activity of the Ionis oligonucleotides in dogs was assessed by measuring dog SMAD7 mRNA expression in liver, kidney, duodenum, ileum, and colon at necropsy. All the human ASOs used are complementary to dog SMAD7 mRNA.\nTissue samples from all dogs were analyzed for SMAD7 mRNA expression using the primer probe set RTS34649 (forward sequence […], designated SEQ ID NO: 2740; reverse sequence […], designated SEQ ID NO: 2741; probe sequence […], designated SEQ ID NO: 2742), which was normalized to mRNA levels of the housekeeping gene, HPRT1. One-way ANOVA with Dunnet's comparison test was used for statistical analysis."}, "[1]": {"assay": "Oligonucleotide concentrations in tissues by LC-MS/MS after oral gavage in CD-1 mice (Example 7)", "assay_type": "in vivo", "conditions": "500 mg/kg oral gavage once daily for 4 weeks, 48 hours after last dose", "description": "(§1) Groups of 7-8 week old male CD-1 mice were given an oral gavage dose once daily for 4 weeks of 500 mg/kg of Ionis SMAD7 oligonucleotides. Each group contained 8 mice. One group of male CD-1 mice was administered saline by oral gavage daily.\nOligonucleotide concentrations were detected in various tissues by LC-MS/MS analysis. The greatest concentration was found in the kidney, followed by the colon."}, "[2]": {"tested_on": "human peripheral blood mononuclear cells (PBMCs)", "assay": "Human PBMC activation assay, cytokine levels (IL-10, IL-6, MCP-1, TNF-α) in supernatant after 24 hours (Example 9)", "conditions": "human PBMC supernatant after 24 hours"}, "[3]": {"assay": "Body and organ weights after oral gavage in CD-1 mice (Example 7)", "assay_type": "in vivo", "conditions": "500 mg/kg oral gavage once daily for 4 weeks, end of study", "description": "as §1\nFinal body weights were measured at the end of the study. There was no significant difference in the body weight of the mice treated with antisense oligonucleotide compared to the control.\nNone of the Ionis SMAD7 oligonucleotides caused any changes in organ weights outside the expected range for antisense oligonucleotides."}, "[4]": {"assay": "Plasma chemistry markers after subcutaneous administration in beagle dogs (Example 8)", "conditions": "30 mg/kg subcutaneous days 1, 3, 5, 8, 15, 22, 29, plasma at day 31"}, "[5]": {"assay": "Blood chemistry markers after oral gavage in CD-1 mice (Example 7)", "assay_type": "in vivo", "conditions": "500 mg/kg oral gavage once daily for 4 weeks, day 30", "description": "The objective of this study was to evaluate the tolerability and pharmacodynamics of select Ionis human SMAD7 antisense oligonucleotides in CD-1 mice following 4 weeks of treatment. The mice were administered oligonucleotides by oral gavage.\nas §1\nLevels of transaminases, albumin, and BUN were measured using a Toshiba 200FR NEO chemistry analyzer (Toshiba Co., Japan)."}},
  "data": [
    {"substance": "830037 (antisense CTATTGGCTGATCTGG; 3-10-3 cEt gapmer, further chemistry not given here) [compound 830037]", "values": [
      {"measurement": "% inhibition of SMAD7 mRNA expression (compared to control), Distal colon", "setting": "dog SMAD7 mRNA; distal colon", "value": 22, "unit": "%"},
      {"measurement": "% inhibition of SMAD7 mRNA expression (compared to control), Duodenum", "setting": "dog SMAD7 mRNA; duodenum", "value": 33, "unit": "%"},
      {"measurement": "% inhibition of SMAD7 mRNA expression (compared to control), Ileum", "setting": "dog SMAD7 mRNA; ileum", "value": 22, "unit": "%"},
      {"measurement": "% inhibition of Smad7 mRNA expression (compared to control), Kidney", "setting": "dog SMAD7 mRNA; kidney", "value": 40, "unit": "%"},
      {"measurement": "% inhibition of Smad7 mRNA expression (compared to control), Liver", "setting": "dog SMAD7 mRNA; liver", "value": 0, "unit": "%"},
      {"measurement": "% inhibition of SMAD7 mRNA expression (compared to control), Proximal colon", "setting": "dog SMAD7 mRNA; proximal colon", "value": 50, "unit": "%"},
      {"measurement": "Oligonucleotide concentration, Colon", "setting": "[1]; colon", "value": 4.8, "unit": "µg/g"},
      {"measurement": "Oligonucleotide concentration, Duodenum", "setting": "[1]; duodenum", "value": 1.2, "unit": "µg/g"},
      {"measurement": "Oligonucleotide concentration, Ileum", "setting": "[1]; ileum", "value": 2.7, "unit": "µg/g"},
      {"measurement": "Oligonucleotide concentration, Kidney", "setting": "[1]; kidney", "value": 32.4, "unit": "µg/g"},
      {"measurement": "Oligonucleotide concentration, Liver", "setting": "[1]; liver", "value": 3.9, "unit": "µg/g"},
      {"measurement": "Levels of IL-6", "setting": "[2]; 0.0128 μM oligonucleotide", "value": 3.8, "unit": "pg/mL"},
      {"measurement": "Levels of IL-10", "setting": "[2]; 0.0128 μM oligonucleotide", "value": 1.6, "unit": "pg/mL"},
      {"measurement": "Levels of MCP-1", "setting": "[2]; 0.0128 μM oligonucleotide", "value": 369.4, "unit": "pg/mL"},
      {"measurement": "Levels of TNF-α", "setting": "[2]; 0.0128 μM oligonucleotide", "value": 3.2, "unit": "pg/mL"},
      {"measurement": "Levels of IL-6", "setting": "[2]; 0.064 μM oligonucleotide", "value": 9.8, "unit": "pg/mL"},
      {"measurement": "Levels of IL-10", "setting": "[2]; 0.064 μM oligonucleotide", "value": 3.2, "unit": "pg/mL"},
      {"measurement": "Levels of MCP-1", "setting": "[2]; 0.064 μM oligonucleotide", "value": 557.1, "unit": "pg/mL"},
      {"measurement": "Levels of TNF-α", "setting": "[2]; 0.064 μM oligonucleotide", "value": 4.1, "unit": "pg/mL"},
      {"measurement": "Levels of IL-6", "setting": "[2]; 0.32 μM oligonucleotide", "value": 26.7, "unit": "pg/mL"},
      {"measurement": "Levels of IL-10", "setting": "[2]; 0.32 μM oligonucleotide", "value": 8.2, "unit": "pg/mL"},
      {"measurement": "Levels of MCP-1", "setting": "[2]; 0.32 μM oligonucleotide", "value": 1284.2, "unit": "pg/mL"},
      {"measurement": "Levels of TNF-α", "setting": "[2]; 0.32 μM oligonucleotide", "value": 8.2, "unit": "pg/mL"},
      {"measurement": "Levels of IL-6", "setting": "[2]; 1.6 μM oligonucleotide", "value": 38.6, "unit": "pg/mL"},
      {"measurement": "Levels of IL-10", "setting": "[2]; 1.6 μM oligonucleotide", "value": 9.5, "unit": "pg/mL"},
      {"measurement": "Levels of MCP-1", "setting": "[2]; 1.6 μM oligonucleotide", "value": 1085.9, "unit": "pg/mL"},
      {"measurement": "Levels of TNF-α", "setting": "[2]; 1.6 μM oligonucleotide", "value": 9.2, "unit": "pg/mL"},
      {"measurement": "Levels of IL-6", "setting": "[2]; 8 μM oligonucleotide", "value": 38.4, "unit": "pg/mL"},
      {"measurement": "Levels of IL-10", "setting": "[2]; 8 μM oligonucleotide", "value": 7.1, "unit": "pg/mL"},
      {"measurement": "Levels of MCP-1", "setting": "[2]; 8 μM oligonucleotide", "value": 1917.1, "unit": "pg/mL"},
      {"measurement": "Levels of TNF-α", "setting": "[2]; 8 μM oligonucleotide", "value": 11.1, "unit": "pg/mL"},
      {"measurement": "Levels of IL-6", "setting": "[2]; 40 μM oligonucleotide", "value": 58.7, "unit": "pg/mL"},
      {"measurement": "Levels of IL-10", "setting": "[2]; 40 μM oligonucleotide", "value": 4.7, "unit": "pg/mL"},
      {"measurement": "Levels of MCP-1", "setting": "[2]; 40 μM oligonucleotide", "value": 3414.8, "unit": "pg/mL"},
      {"measurement": "Levels of TNF-α", "setting": "[2]; 40 μM oligonucleotide", "value": 16.6, "unit": "pg/mL"},
      {"measurement": "Levels of IL-6", "setting": "[2]; 200 μM oligonucleotide", "value": 71.2, "unit": "pg/mL"},
      {"measurement": "Levels of IL-10", "setting": "[2]; 200 μM oligonucleotide", "value": 3.8, "unit": "pg/mL"},
      {"measurement": "Levels of MCP-1", "setting": "[2]; 200 μM oligonucleotide", "value": 2449.3, "unit": "pg/mL"},
      {"measurement": "Levels of TNF-α", "setting": "[2]; 200 μM oligonucleotide", "value": 18.9, "unit": "pg/mL"},
      {"measurement": "Body weight", "setting": "[3]", "value": 35, "unit": "g"},
      {"measurement": "Heart weight", "setting": "[3]", "value": 0.17, "unit": "g"},
      {"measurement": "Kidneys weight", "setting": "[3]", "value": 0.69, "unit": "g"},
      {"measurement": "Liver with gallbladder weight", "setting": "[3]", "value": 1.93, "unit": "g"},
      {"measurement": "Spleen weight", "setting": "[3]", "value": 0.10, "unit": "g"},
      {"measurement": "ALT", "setting": "[4]", "value": 3091, "unit": "IU/L"},
      {"measurement": "AST", "setting": "[4]", "value": 1132, "unit": "IU/L"},
      {"measurement": "Albumin", "setting": "[4]", "value": 3.7, "unit": "g/dL"},
      {"measurement": "BUN", "setting": "[4]", "value": 21.2, "unit": "mg/dL"},
      {"measurement": "Bilirubin", "setting": "[4]", "value": 0.8, "unit": "mg/dL"},
      {"measurement": "Creatine", "setting": "[4]", "value": 1.0, "unit": "mg/dL"},
      {"measurement": "ALT", "setting": "[5]", "value": 62, "unit": "IU/L"},
      {"measurement": "AST", "setting": "[5]", "value": 94, "unit": "IU/L"},
      {"measurement": "Albumin", "setting": "[5]", "value": 3.3, "unit": "g/dL"},
      {"measurement": "BUN", "setting": "[5]", "value": 26, "unit": "mg/dL"},
      {"measurement": "Bilirubin", "setting": "[5]", "value": 0.3, "unit": "mg/dL"}
    ]}
  ]
}
